The values that follow come from ChEMBL document CHEMBL4421722, “Inhibitors of protein prenyltransferases” (2013).

The species entered for the experiment is Rattus norvegicus. Nature of the experiment: Inhibition of rat recombinant geranylgeranyltransferase type I expressed in Escherichia coli assessed as residual enzyme activity for geranylgeranylation of K-Ras4B at 50 uM incubated for 30 mins in presence of [3H]GGPP by scintillation counting assay relative to control.
In the case of `Cc1ccc(S(=O)(=O)N2[C@@H](c3cccc(Br)c3)C(C(=O)O)=CC[C@H]2c2cccs2)cc1`, the Activity was 55%.

With `CCCCCCS[C@@H]1C[C@@H](c2ccccc2F)N(S(=O)(=O)c2ccc(C)cc2)C[C@H]1C(=O)O`, the Activity amounted to 75.3%.

As for `Cc1ccc(S(=O)(=O)N2[C@@H](c3ccc(C(C)(C)C)cc3)C(C(=O)O)=CC[C@H]2c2cccc(F)c2)cc1`, the Activity came to 77.2%.

Take `CCc1ccc([C@@H]2C[C@@H](SCCC(C)C)[C@H](C(=O)O)CN2S(=O)(=O)c2ccc(C)cc2)cc1`: the Activity turned out to be 71.9%.

Regarding `COc1ccc(S[C@@H]2C[C@@H](c3cccc(OC)c3)N(S(=O)(=O)c3ccc(C)cc3)C[C@H]2C(=O)O)cc1`, the Activity was determined as 101%.

For the compound `Cc1ccc(S(=O)(=O)N2[C@@H](c3cccc(F)c3)C(C(=O)O)=CC[C@H]2c2ccccc2F)cc1`, the Activity is 75%.

As for `COc1ccc([C@@H]2CC=C(C(=O)O)[C@H](c3cccc(Br)c3)N2S(=O)(=O)c2ccc(C)cc2)cc1OC`, the Activity turned out to be 59%.

On to `CCCCCS[C@@H]1C[C@@H](c2cc(OC)c(OC)c(OC)c2)N(S(=O)(=O)c2ccc(C)cc2)C[C@H]1C(=O)O`, for which the Activity is 81.8%.

As for `Cc1ccc([C@@H]2C[C@@H](SCc3ccccc3)[C@H](C(=O)O)CN2S(=O)(=O)c2ccc(Cl)cc2)cc1`, the Activity worked out at 40.3%.

As to `COc1ccc([C@@H]2C[C@@H](Sc3ccc(C)cc3)[C@H](C(=O)O)CN2S(=O)(=O)c2ccc(C)cc2)cc1`, the Activity was 91.8%.

As for `Cc1ccc([C@H]2C(C(=O)O)=CC[C@@H](c3ccc(Cl)cc3)N2S(=O)(=O)c2ccc(C)cc2)cc1`, the Activity turned out to be 60.7%.

Take `CCCCCCS[C@@H]1C[C@@H](c2ccc(Cl)cc2)N(S(=O)(=O)c2ccc(C)cc2)C[C@H]1C(=O)O`: the Activity was determined as 72.2%.

In the case of `COc1cc([C@@H]2C[C@@H](Sc3ccc(C)cc3)[C@H](C(=O)O)CN2S(=O)(=O)c2ccc(C)cc2)cc(OC)c1OC`, the Activity was found to be 95.6%.

Consider `CS(=O)(=O)N1[C@@H](c2cccc(Cl)c2)C(C(=O)O)=CC[C@H]1c1ccc(Cl)cc1`, for which the Activity is 60.3%.

Turning to `Cc1ccc(S(=O)(=O)N2C[C@@H](C(=O)O)[C@H](SCC(C)C)C[C@H]2c2ccc(Cl)cc2)cc1`, the Activity worked out at 86.8%.

Regarding `CCS[C@@H]1C[C@@H](c2ccc(OC)cc2)N(S(=O)(=O)c2ccc(C)cc2)C[C@H]1C(=O)O`, the Activity was 96.3%.

With `Cc1ccc([C@H]2C(C(=O)O)=CC[C@@H](c3ccc(C)cc3)N2S(C)(=O)=O)cc1`, the Activity is 78%.

Regarding `COc1ccc([C@@H]2C[C@@H](SCCC(C)C)[C@H](C(=O)O)CN2S(=O)(=O)c2ccccc2C)cc1`, the Activity came out at 65.9%.

Consider `COc1ccc([C@@H]2CC=C(C(=O)O)[C@H](c3ccc(Cl)cc3)N2S(=O)(=O)c2ccc(C)cc2)cc1OC`, for which the Activity amounted to 83.2%.

Regarding `CCCCS[C@@H]1C[C@@H](c2cc(OC)c(OC)c(OC)c2)N(S(=O)(=O)c2ccc(C)cc2)C[C@H]1C(=O)O`, the Activity worked out at 73.5%.

Consider `Cc1ccc(S(=O)(=O)N2[C@@H](c3ccc(Cl)cc3)C(C(=O)O)=CC[C@H]2c2cccs2)cc1`, for which the Activity worked out at 75.6%.

In the case of `Cc1ccc(S(=O)(=O)N2[C@@H](c3ccc(Cl)cc3)C(C(=O)O)=CC[C@H]2c2ccccc2F)cc1`, the Activity was 58.2%.

With `Cc1ccc([C@@H]2CC=C(C(=O)O)[C@H](c3cccc(F)c3)N2S(C)(=O)=O)cc1`, the Activity amounted to 75%.

Regarding `Cc1ccc(S(=O)(=O)N2[C@@H](c3cccc(Cl)c3)C(C(=O)O)=CC[C@H]2c2ccc3c(c2)OCO3)cc1`, the Activity stood at 73.9%.

For `C=CCS[C@@H]1C[C@@H](c2ccc(C)cc2)N(S(C)(=O)=O)C[C@H]1C(=O)O`, the Activity stood at 91.4%.

For the compound `Cc1ccc(S(=O)(=O)N2[C@@H](c3cccc(F)c3)C(C(=O)O)=CC[C@H]2c2cccc(F)c2)cc1`, the Activity was found to be 69.9%.

Turning to `COc1ccc([C@@H]2C[C@@H](SCc3ccccc3)[C@H](C(=O)O)CN2S(=O)(=O)c2ccccc2C)cc1`, the Activity was 33.9%.

With `CCS[C@@H]1C[C@@H](c2cccc(OC)c2)N(S(=O)(=O)c2ccc(C)cc2)C[C@H]1C(=O)O`, the Activity came out at 84.8%.

For the compound `COC(=O)c1ccccc1S(=O)(=O)N1[C@@H](c2cccc(F)c2)C(C(=O)O)=CC[C@H]1c1ccc(C)cc1`, the Activity worked out at 64.5%.

On to `COc1cccc([C@@H]2C[C@@H](Sc3ccccc3)[C@H](C(=O)O)CN2S(=O)(=O)c2ccc(C)cc2)c1`, for which the Activity worked out at 86.1%.

With `COc1cc([C@@H]2C[C@@H](SCc3ccc(C(C)(C)C)cc3)[C@H](C(=O)O)CN2S(=O)(=O)c2ccc(C)cc2)cc(OC)c1OC`, the Activity amounted to 71.3%.

As for `Cc1ccc([C@@H]2C[C@@H](SCc3ccccc3)[C@H](C(=O)O)CN2S(=O)(=O)c2ccccc2)cc1`, the Activity came out at 47.4%.

Take `CCc1ccc([C@@H]2C=CCCN2S(=O)(=O)c2ccc(C)cc2)cc1`: the Activity was 99.5%.

Turning to `CCCCCS[C@@H]1C[C@@H](c2ccc3c(c2)OCO3)N(S(=O)(=O)c2ccc(C)cc2)C[C@H]1C(=O)O`, the Activity is 66%.

For `Cc1ccc([C@@H]2C[C@@H](Sc3ccccc3)[C@H](C(=O)O)CN2S(=O)(=O)c2ccc(C)cc2)cc1`, the Activity amounted to 63.2%.

For `Cc1ccc(S(=O)(=O)N2[C@@H](c3ccc(F)cc3)C(C(=O)O)=CC[C@H]2c2ccc(C(C)C)cc2)cc1`, the Activity was determined as 50.9%.

Take `Cc1ccc(S[C@@H]2C[C@@H](c3ccc(C)cc3)N(S(=O)(=O)c3ccccc3)C[C@H]2C(=O)O)cc1`: the Activity is 91.3%.

`CCCCS[C@@H]1C[C@@H](c2ccc(C)cc2)N(S(=O)(=O)c2ccc(Cl)cc2)C[C@H]1C(=O)O`: the Activity is 49.2%.

As for `COc1ccc([C@@H]2CC=C(C(=O)O)[C@H](c3ccc(C)cc3)N2S(=O)(=O)c2ccccc2)cc1`, the Activity amounted to 88.2%.

Consider `CC(=O)C1=CC[C@@H](c2ccc(C)cc2)N(S(=O)(=O)c2ccc(C)cc2)C1`, for which the Activity was 90.6%.

Regarding `Cc1ccc([C@@H]2C[C@@H](SCCc3ccccc3)[C@H](C(=O)O)CN2S(C)(=O)=O)cc1`, the Activity turned out to be 76.9%.

As to `Cc1ccc(S(=O)(=O)N2[C@@H](c3cccc(Cl)c3)C(C(=O)O)=CC[C@H]2c2cccc(F)c2)cc1`, the Activity stood at 62.3%.

Take `Cc1ccc([C@@H]2CC=C(C(=O)O)[C@H](c3ccc(Cl)cc3)N2S(C)(=O)=O)cc1`: the Activity stood at 79.1%.

For the compound `CCc1ccc([C@@H]2CC=C(C(=O)O)[C@H](c3ccc(Br)cc3)N2S(=O)(=O)c2ccc(C)cc2)cc1`, the Activity was 69.2%.

With `Cc1ccc(S(=O)(=O)N2[C@@H](c3ccc(Br)cc3)C(C(=O)O)=CC[C@H]2c2ccccc2F)cc1`, the Activity worked out at 72.8%.

`Cc1ccc(S(=O)(=O)N2[C@@H](c3cccc(Cl)c3)C(C(=O)O)=CC[C@H]2c2ccc(C#N)cc2)cc1`: the Activity was 70.9%.

As to `COc1ccc([C@@H]2CC=C(C(=O)O)[C@H](c3ccc(C(C)(C)C)cc3)N2S(=O)(=O)c2ccccc2)cc1`, the Activity amounted to 82.2%.

Turning to `Cc1ccc(S(=O)(=O)N2[C@@H](c3cccc(C)c3)C(C(=O)O)=CC[C@H]2c2ccc(Cl)cc2)cc1`, the Activity is 66%.

Turning to `COc1ccc([C@@H]2CC=C(C(=O)O)[C@H](c3ccc(C(C)(C)C)cc3)N2S(=O)(=O)c2ccc(C)cc2)cc1`, the Activity is 91.1%.

Regarding `Cc1ccc([C@@H]2C[C@@H](SCc3ccc(Cl)cc3)[C@H](C(=O)O)CN2S(C)(=O)=O)cc1`, the Activity stood at 51.1%.

On to `Cc1ccc(S(=O)(=O)N2[C@@H](c3ccc(Cl)cc3)C(C(=O)O)=CC[C@H]2c2ccc(Cl)cc2)cc1`, for which the Activity is 52.8%.

`Cc1ccc(S(=O)(=O)N2C[C@@H](C(=O)O)[C@H](SC3CCCC3)C[C@H]2c2ccccc2F)cc1`: the Activity stood at 93.4%.

As to `Cc1ccc(S(=O)(=O)N2[C@@H](c3ccc(Br)cc3)C(C(=O)O)=CC[C@H]2c2cccc(C)c2)cc1`, the Activity was found to be 73.5%.

On to `COc1ccc(S[C@@H]2C[C@@H](c3ccc(OC)cc3)N(S(=O)(=O)c3ccc(Cl)cc3)C[C@H]2C(=O)O)cc1`, for which the Activity was found to be 80.8%.

Turning to `CS(=O)(=O)N1[C@@H](c2ccc(Cl)cc2)C(C(=O)O)=CC[C@H]1c1ccccc1`, the Activity was 82.1%.

As for `Cc1ccc([C@H]2C(C(=O)O)=CC[C@@H](c3ccc(C)cc3)N2S(=O)(=O)c2ccc(Cl)cc2)cc1`, the Activity is 53%.

In the case of `Cc1ccc([C@H]2C(C(=O)O)=CC[C@@H](c3ccc(Cl)cc3)N2S(C)(=O)=O)cc1`, the Activity amounted to 90.6%.

Regarding `COc1ccc([C@@H]2CC=C(C(=O)O)[C@H](c3ccc(F)cc3)N2S(=O)(=O)c2ccc(Cl)cc2)cc1`, the Activity was 67.2%.

As for `Cc1ccc(S(=O)(=O)N2C[C@@H](C(=O)O)[C@H](SCc3ccc(C(C)(C)C)cc3)C[C@H]2c2cccc(Cl)c2)cc1`, the Activity was found to be 99%.

In the case of `CCOc1ccc([C@@H]2CC=C(C(=O)O)[C@H](c3ccc(F)cc3)N2S(=O)(=O)c2ccc(C)cc2)cc1`, the Activity amounted to 66.2%.

Turning to `Cc1ccc(S(=O)(=O)N2C[C@@H](C(=O)O)[C@H](Sc3ccc(Cl)cc3)C[C@H]2c2ccc3c(c2)OCO3)cc1`, the Activity was 90.9%.

Take `COC(=O)c1ccccc1S(=O)(=O)N1[C@@H](c2ccc(Cl)cc2)C(C(=O)O)=CC[C@H]1c1ccc(C)cc1`: the Activity was 81.4%.

For the compound `Cc1ccc(S(=O)(=O)N2[C@@H](c3ccc(C(C)(C)C)cc3)C(C(=O)O)=CC[C@H]2c2cccc(Br)c2)cc1`, the Activity was determined as 82.8%.

`CCc1ccc([C@@H]2CC=C(C(=O)O)[C@H](c3ccc(C)cc3)N2S(=O)(=O)c2ccc(C)cc2)cc1`: the Activity is 87%.

Take `Cc1ccc([C@H]2C(C(=O)O)=CC[C@@H](c3ccc(Cl)cc3)N2S(=O)(=O)c2ccc(Cl)cc2)cc1`: the Activity is 53.9%.

Regarding `Cc1ccc(S(=O)(=O)N2[C@@H](c3cccc(C)c3)C(C(=O)O)=CC[C@H]2c2ccc(C(C)C)cc2)cc1`, the Activity was found to be 57.1%.

For the compound `Cc1ccc(S(=O)(=O)N2[C@@H](c3cccc(F)c3)C(C(=O)O)=CC[C@H]2c2cccc(Cl)c2)cc1`, the Activity turned out to be 52.8%.

Turning to `CCCCS[C@@H]1C[C@@H](c2ccc(CC)cc2)N(S(=O)(=O)c2ccc(C)cc2)C[C@H]1C(=O)O`, the Activity was found to be 58.3%.

Consider `COc1ccc([C@@H]2CC=C(C(=O)O)[C@H](c3ccc(C(C)(C)C)cc3)N2S(=O)(=O)c2ccc(C)cc2)cc1OC`, for which the Activity stood at 90.4%.

For `COc1ccc([C@@H]2C[C@@H](Sc3ccc(C)cc3)[C@H](C(=O)O)CN2S(=O)(=O)c2ccccc2)cc1`, the Activity was determined as 84.8%.
